From publication PMC4890880 (ACS infectious diseases, 2016)
Read-outs that look alike come from different tables or passages of the source.

Assays:
HepG2-A16-CD81EGFP cells [1] = experiment: cells; conditions: Homo sapiens, HepG2, read-out: % inhibition
HepG2-A16-CD81EGFP cells [2] = experiment: cells; conditions: Homo sapiens, HepG2, read-out: % inhibition; remark: listed apart in the source
[3] = system: Plasmodium berghei (Pb-Luc) exoerythrocytic-stage parasites; experiment: microbe, parasite or virus in culture; conditions: for inhibition at 10 µM: read-out: PbLuc max inhibition (%) @ 10 uM
HepG2-A16-CD81EGFP cells [4] = experiment: cells; conditions: Homo sapiens; for IC50: HepG2, read-out: Tox IC50; for inhibition at 10 µM: HepG2, read-out: Tox max inhibition (%) @ 10 uM; for inhibition at 50 µM: HepG2, read-out: Tox max inhibition (%) @ 50 uM
[5] = biological target: QuantiLum Recombinant Luciferase (Photinus pyralis, UniProt P08659); experiment: Bioluminescence quantification of compound luciferase inhibition; conditions: for Emax: read-out: LucInhib max inhibition
[6] = read-out: Inhibition% @ 50 uM rep1
[7] = read-out: Inhibition% @ 50 uM rep2
[8] = HepG2, read-out: HepG2 Tox% @ 50 uM rep1
[9] = HepG2, read-out: HepG2 Tox% @ 50 uM rep2
[10] = read-out: PbLuc IC50, dose response, 1/3 dilutions, max conc. 10 or 50 uM, unit inferred
[11] = read-out: PbLuc IC50, dose response, unit inferred
[12] = read-out: PbLuc max inhibition (%) @ 50 uM

Sequence of QuantiLum Recombinant Luciferase (P08659 whole entry): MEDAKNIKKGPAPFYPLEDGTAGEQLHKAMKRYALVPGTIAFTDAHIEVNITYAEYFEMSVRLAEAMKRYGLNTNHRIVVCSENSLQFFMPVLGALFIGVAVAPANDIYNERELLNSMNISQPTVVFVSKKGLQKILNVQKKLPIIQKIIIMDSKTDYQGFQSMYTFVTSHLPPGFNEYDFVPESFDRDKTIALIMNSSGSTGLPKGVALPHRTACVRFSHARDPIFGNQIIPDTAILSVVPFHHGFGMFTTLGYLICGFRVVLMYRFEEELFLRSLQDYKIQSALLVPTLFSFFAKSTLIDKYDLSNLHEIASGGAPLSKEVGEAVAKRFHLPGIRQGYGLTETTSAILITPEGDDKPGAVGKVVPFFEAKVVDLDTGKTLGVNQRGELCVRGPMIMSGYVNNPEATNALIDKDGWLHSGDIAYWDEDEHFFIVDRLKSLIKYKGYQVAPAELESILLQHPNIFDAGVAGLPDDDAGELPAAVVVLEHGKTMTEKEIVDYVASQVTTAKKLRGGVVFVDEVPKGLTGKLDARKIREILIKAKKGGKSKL

Structure (SMILES)	inhibition at 50 µM (HepG2-A16-CD81EGFP cells [1]) [%]	inhibition at 50 µM (HepG2-A16-CD81EGFP cells [2]) [%]	inhibition at 50 µM [3, 6] [%]	inhibition at 50 µM [3, 7] [%]	cytotoxicity at 50 µM (HepG2-A16-CD81EGFP cells [4]; [8]) [%]	cytotoxicity at 50 µM (HepG2-A16-CD81EGFP cells [4]; [9]) [%]	IC50 (HepG2-A16-CD81EGFP cells [4]) [µM]	inhibition at 10 µM (HepG2-A16-CD81EGFP cells [4]) [%]	IC50 [3, 10] [µM]	inhibition at 10 µM [3] [%]	IC50 [5] [µM]	Emax [5] [%]	inhibition at 50 µM (HepG2-A16-CD81EGFP cells [4]) [%]	IC50 [3, 11] [µM]	inhibition at 50 µM [3, 12] [%]
CCc1c(C)c(=N)c2ccccc2n1C [MMV006278]	71	77.8	100	101											
COc1ccc(C2Sc3ccccc3N=C3C2=C(O)c2ccccc23)cc1 (stereo not shown) [MMV000563]	62.5	71.1	103	104											
COc1cccc(-c2nn(C)c3sc(C(=O)NCCN4CCN(c5ccccc5F)CC4)cc23)c1 [MMV019064]	53.8	82.3	103	104											
O=C1CC(O)(C(F)(F)C(F)(F)F)Oc2ccccc21 (stereo not shown) [MMV000972]	96.7	97.9	103	105											
Oc1ccccc1CN1CCN(C(c2ccccc2)c2ccccc2)CC1 [MMV011795]	77.8	51.4	100	102											
CCOC(=O)c1c(C)n(-c2ccc(Cl)cc2)c2ccc(OC(=O)C=Cc3ccccc3)cc12 [MMV666600]	70.5	68.1	104	104											
COc1ccc(-c2nonc2NC(=O)c2cccc(Cl)c2)cc1OC [MMV020660]	92	93.3	104	106											
COc1ccc2c(=O)cc(C(Cl)(Cl)Cl)oc2c1 [MMV665820]	96.4	98.1	103	102											
Cc1ccc(CN2CCC(C(=O)Nc3ccc(-c4cc5ccccc5[nH]4)cc3)CC2)o1 [MMV666071]	42.7	43.9	98	96											
CCN(CC)S(=O)(=O)c1ccc(-c2csc(Nc3ccc(C)c(C)c3)n2)cc1 [MMV009108]	72.2	80.9	97	96											
COc1ccccc1N1CCN(C(CNS(=O)(=O)c2ccc(Cl)cc2)c2cccnc2)CC1 (stereo not shown) [MMV665914]	49.3	59.7	96	96											
O=C(CSc1ccc2nnc(-c3cccc(F)c3)n2n1)Nc1ccc2c(c1)OCO2 [MMV665918]	-2.83	0.859	-43	-48											
O=C(Nc1ccc(Br)cc1)Nc1cccc(Cl)c1 [MMV001318]	66.2	65.5	103	102											
CCOC(=O)C1=C(c2ccccc2)N=c2sc(=Cc3cc(C)n(-c4ccc(F)cc4)c3C)c(=O)n2C1c1cccc(OC)c1OC (stereo not shown) [MMV666601]	-7.05	8.55	84	87											
CCOc1ccc(-c2nonc2NC(=O)c2cccc(C)c2)cc1OCC [MMV665805]	0.576	6.54	44	72											
CCN(CC)CCCNc1nc(-c2ccc(Cl)cc2)nc2ccccc12 [MMV665961]	95	87.3	101	103											
CCCCc1c(C)nc2c(OC)cccc2c1O [MMV006820]			99	102	-15	-12	> 10	15	0.162	110	> 20	41			
COc1ccc2c(c1OC)C(=O)N1c3ccccc3N=C(c3ccc(C)cc3)CC21 (stereo not shown) [MMV000917]			96	95	15		> 50				> 50	23	7	> 50	96
COc1cc(CNCCc2ccc(Cl)cc2)cc(OC)c1O [MMV128432]			90	93	-13		> 50				> 50	39	33	> 50	73
CCOC(=O)c1cn(CC)c2cc(N3CCCCC3)c(F)cc2c1=O [MMV665827]			102	105	-12	-7	> 10	15	0.0743	99	> 20	24			
O=C(c1ccccc1F)N(Cc1ccc(Cl)cc1)c1ccccn1 [MMV665899]			100	98	20	28	> 50		9.54		> 50	40	6		94
CC(C)(C)c1ccc(C(=O)Nc2c3c(nn2-c2cccc(Cl)c2)CSC3)cc1 [MMV666123]			101	102	18		> 50		10.1		> 50	23	10		103
COc1ccc(C(C)=O)cc1N1C(=O)C2C(C1=O)C1(c3ccccc3)C(=O)C2(c2ccccc2)C(c2ccc(C)cc2)=C1c1ccc(C)cc1 (stereo not shown) [MMV007695]			101	104	-1.58	13	> 50				> 50	35	5.54	24.8	60
Cc1c(C)n(Cc2ccc(F)cc2)c2ccc(C(=O)NCc3ccco3)cc12 [MMV008149]			102	102	9	19	> 50		0.765		> 50	10	32		107
CCCc1c(C)nc2ccccc2c1O [MMV666081]			101	103	0.331	-5.31	> 10	2.31	0.195	100	> 20	18			
CC(C)(C)c1ccc(C2CC3=Nc4ccccc4N(C(=O)c4ccccc4Cl)C(c4ccc(F)cc4)C3=C(O)C2)cc1 (stereo not shown) [MMV011436]			93	94	1.44		> 50		2.39		> 50	20	19		99
